In patent US20260248787A9, “MEDICAMENT FOR TREATING CANCER COMPRISING OPTICALLY ACTIVE AZABICYCLO RING DERIVATIVE” (Sumitomo Pharma Co., Ltd., priority 2023, published 2026):
Like-named read-outs stand apart in the source and are kept apart here.

Test: Phase 1/2 clinical study, plasma pharmacokinetic evaluation
Assay type: in vivo, human
Conditions: for time of maximum concentration: after dosing; for AUC(0-t) / Cmax / Tmax / half-life: human, plasma, oral; for half-life: read-out: t1/2 (converted)
Method: In the present test of the present compound, PK samples have been collected in up to 24 patients dosed in dose groups of 40, 80, 100, and 120 mg BID Arm A, and in dose groups of 40 and 60 mg BID Arm B (Table 6). Large preliminary PK inter-patient variability was observed.
(1) In the present study, PK samples have been collected in up to 42 patients dosed in dose groups of 40, 80, 100, 120, 140 and 200 mg BID Arm A, and in dose groups of 40, 60, 100, and 200 mg BID Arm B (Table 15).
(2) In the present study, PK samples have been collected in patients dosed in dose groups of 40, 80, 100, 120, 140, 200, and 300 mg BID Arm A, and in dose groups of 40, 60, 100, 200, and 300 mg BID Arm B (Table 16).

[1] = 40 mg, 40 mg BID Arm A, C1D1, N=2, mean
[2] = 40 mg, 40 mg BID Arm A, C2D1, N=1
[3] = 40 mg, 40 mg BID Arm B, C1D1, N=4, mean
[4] = 40 mg, 40 mg BID Arm B, C2D1, N=2, mean
[5] = 40 mg, Cycle 1 Day 1, 40 mg BID Arm A (without azole), N=2, mean
[6] = 40 mg, Cycle 1 Day 1, 40 mg BID Arm B (with azole), N=4, mean
[7] = 40 mg, Cycle 2 Day 1, 40 mg BID Arm A (without azole), N=1
[8] = 40 mg, Cycle 2 Day 1, 40 mg BID Arm B (with azole), N=2, mean
[9] = 40 mg, Table 15 cut-off, 40 mg BID Arm A, Cycle 1 Day 1, N=2, mean
[10] = 40 mg, Table 15 cut-off, 40 mg BID Arm A, Cycle 2 Day 1, N=1
[11] = 40 mg, Table 15 cut-off, 40 mg BID Arm B, Cycle 1 Day 1, N=4, mean
[12] = 40 mg, Table 15 cut-off, 40 mg BID Arm B, Cycle 2 Day 1, N=2, mean
[13] = 60 mg, 60 mg BID Arm B, C1D1, N=6, mean
[14] = 60 mg, 60 mg BID Arm B, C2D1, N=4, mean
[15] = 60 mg, Cycle 1 Day 1, 60 mg BID Arm B (with azole), N=6, mean
[16] = 60 mg, Cycle 2 Day 1, 60 mg BID Arm B (with azole), N=4, mean
[17] = 60 mg, Table 15 cut-off, 60 mg BID Arm B, Cycle 1 Day 1, N=6, mean
[18] = 60 mg, Table 15 cut-off, 60 mg BID Arm B, Cycle 2 Day 1, N=4, mean
[19] = 80 mg, 80 mg BID Arm A, C1D1, N=4, mean
[20] = 80 mg, 80 mg BID Arm A, C2D1, N=2, mean
[21] = 80 mg, Cycle 1 Day 1, 80 mg BID Arm A (without azole), N=4, mean
[22] = 80 mg, Cycle 2 Day 1, 80 mg BID Arm A (without azole), N=2, mean
[23] = 80 mg, Table 15 cut-off, 80 mg BID Arm A, Cycle 1 Day 1, N=4, mean
[24] = 80 mg, Table 15 cut-off, 80 mg BID Arm A, Cycle 2 Day 1, N=2, mean
[25] = 100 mg, 100 mg BID Arm A, C1D1, N=2, mean

**Q.** What does the source list for `C=C1C[C@@H]2CC[C@H]1[C@@H](C(=O)N1CCC3(CC1)CN(c1ncncc1Oc1ccc(F)cc1C(=O)N(C(C)C)C(C)C)C3)N2` [the present compound, 5-fluoro-2-[(4-{7-[(1S,3S,4R)-5-methylidene-2-azabicyclo[2.2.2]octane-3-carbonyl]-2,7-diazaspiro[3.5]nonan-2-yl}pyrimidin-5-yl)oxy]-N,N-di(propan-2-yl)benzamide]?
**A.** drug accumulation with repeat dosing (40-200 mg BID cut-off): minimal drug accumulation; effect of azoles on the exposure (40-200 mg BID cut-off): do not have a large effect; exposure versus dose (40-200 mg BID cut-off): Dose-dependent increases in exposures; drug accumulation with repeat dosing (40-300 mg BID cut-off): minimal drug accumulation; effect of azoles on the exposure (40-300 mg BID cut-off): do not have a large effect; exposure versus dose (40-300 mg BID cut-off): Dose-dependent increases in exposures; exposure versus dose (Arm A, 40, 80, 100, 120 mg BID): a trend of dose-related increased in exposures; impact of azoles on the exposure (Arm B compared with Arm A, first cut-off): do not have a large or dramatic impact; drug accumulation with repeat dosing (Cycle 2 Day 1 vs Cycle 1 Day 1, first cut-off): minimal to no drug accumulation; accumulation with repeat dosing (FIGS. 4A to 4D cut-off): minimal accumulation; large drug-drug interaction (>~2-fold) with azoles (FIGS. 4A to 4D cut-off): has not identified; time of maximum concentration (40-200 mg BID cut-off): ≤ 2 h; time of maximum concentration (40-300 mg BID cut-off): ≤ 2 h; exposure versus dose (doses ≥140 mg BID, FIGS. 4A to 4D cut-off): Dose-related increases in exposures; AUC(0-t) [1]: 3920 ng·h/mL; Cmax [1]: 1160 ng/mL; Tmax [1]: 1.25 h; half-life [1]: 3.35 h; AUC(0-t) [2]: 4710 ng·h/mL; Cmax [2]: 772 ng/mL; Tmax [2]: 2 h; half-life [2]: 4.57 h; AUC(0-t) [3]: 3270 ng·h/mL; Cmax [3]: 976 ng/mL; Tmax [3]: 0.625 h; half-life [3]: 4.41 h; AUC(0-t) [4]: 5330 ng·h/mL; Cmax [4]: 987 ng/mL; Tmax [4]: 1.25 h; half-life [4]: 7.29 h; AUC(0-t) [5]: 3960 ng·h/mL; Cmax [5]: 1160 ng/mL; AUC(0-t) [6]: 3270 ng·h/mL; Cmax [6]: 976 ng/mL; AUC(0-t) [7]: 4730 ng·h/mL; Cmax [7]: 772 ng/mL; AUC(0-t) [8]: 5330 ng·h/mL; Cmax [8]: 987 ng/mL; AUC(0-t) [9]: 3960 ng·h/mL; Cmax [9]: 1160 ng/mL; AUC(0-t) [10]: 4730 ng·h/mL; Cmax [10]: 772 ng/mL; AUC(0-t) [11]: 3270 ng·h/mL; Cmax [11]: 976 ng/mL; AUC(0-t) [12]: 5330 ng·h/mL; Cmax [12]: 987 ng/mL; AUC(0-t) [13]: 4140 ng·h/mL; Cmax [13]: 1170 ng/mL; Tmax [13]: 1.08 h; half-life [13]: 2.61 h; AUC(0-t) [14]: 2610 ng·h/mL; Cmax [14]: 703 ng/mL; Tmax [14]: 0.75 h; half-life [14]: 3.19 h; AUC(0-t) [15]: 4240 ng·h/mL; Cmax [15]: 1170 ng/mL; AUC(0-t) [16]: 2690 ng·h/mL; Cmax [16]: 751 ng/mL; AUC(0-t) [17]: 4240 ng·h/mL; Cmax [17]: 1170 ng/mL; AUC(0-t) [18]: 2690 ng·h/mL; Cmax [18]: 751 ng/mL; AUC(0-t) [19]: 5150 ng·h/mL; Cmax [19]: 1620 ng/mL; Tmax [19]: 1.25 h; half-life [19]: 2.82 h; AUC(0-t) [20]: 2900 ng·h/mL; Cmax [20]: 1400 ng/mL; Tmax [20]: 0.75 h; half-life [20]: 3.4 h; AUC(0-t) [21]: 5110 ng·h/mL; Cmax [21]: 1620 ng/mL; AUC(0-t) [22]: 2900 ng·h/mL; Cmax [22]: 1400 ng/mL; AUC(0-t) [23]: 5110 ng·h/mL; Cmax [23]: 1620 ng/mL; AUC(0-t) [24]: 2900 ng·h/mL; Cmax [24]: 1400 ng/mL; AUC(0-t) [25]: 4940 ng·h/mL; Cmax [25]: 1380 ng/mL
